Measured values published in US8048683B2, “Insect repellent and process for identifying other insect repellent molecules” (Centre National de la Recherche Scientifique, priority 2006, dated 2011).

How the values were obtained:
drosophilas = test: Gustatory choice (feeding preference) behavioral test with two dyes; type: in vivo, Drosophila melanogaster
Protocol: The test used measures the feeding preference in a choice with 2 possibilities materialized by two dyes, on the one hand erioglaucine (blue) and, on the other hand, sulforhodamine (red).
The erioglaucine is used at a final concentration of 5 mg/ml, dissolved in double-distilled water, pH 7.5. The sulforhodamine is used at a final concentration of 20 mg/ml, dissolved in double-distilled water, pH 7.5. The 2 dye solutions also contain sucrose fat a final concentration of 5 mM). The agonists (pH=7.5) used are added, an the final concentrations indicated on the figures, to the solution containing the erioglaucine.
To prepare a solid medium, these various compounds are added to a molten solution of agarose (0.3% final concentration, 45° C.) and deposited in a 96-well cell culture plate (Corning Incorporated, ref 3599) such that the wells alternately contain 200 μl of blue dye then 200 μl of red dye (see FIG. 4). The plates are left at ambient temperature for 2 hours in order for the agarose to solidify, and are then used for a feeding preference test.
For each behavioral test, 60 2- to 5-day-old drosophilas are deprived of food for 24 hours on cotton wool soaked with distilled water before the test and are then placed in a box containing a 96-well plate prepared as indicated above. The drosophilas are left in the dark for 2 hours, at 25° C., at a humidity of 30 to 50%. The drosophilas are then rapidly collected by anesthesia with CO2 and then frozen at −20° C. for 20 minutes. In order to determine the food intake, the flies are counted according to the color of the content of their digestive tube. The results are expressed as % of flies which have eaten a given medium relative to the total number of flies which have eaten, according to the formula: % blue=number of flies with a blue digestive tube, divided by the number of flies which have eaten (sum of the flies with a blue, violet or red digestive tube), multiplied by 100.
At least 3 independent tests were carried out for each point indicated on the figures, and the results of the tests were counted blind for the majority of the points. Only the tests in which more than […] of the flies had eaten were included in the results and in the statistical tests (T test and ANOVA). […]
The flies are counted according to the color of the content of their digestive tube.
The results are expressed as percentage of flies which have eaten a given medium, relative to the total number of flies which have eaten. % blue=N blue/(N blue+N violet+N red)×100 […]

DmX receptor (DmXR) = biological target: T1, DmX receptor (DmXR) (Drosophila melanogaster, UniProt Q70GQ8); test: Pharmacological test: DmXR activation in transfected HEK cells, measured by accumulation of inositol triphosphate; settings: FIG. 1
T1 sequence (Q70GQ8 1-1073): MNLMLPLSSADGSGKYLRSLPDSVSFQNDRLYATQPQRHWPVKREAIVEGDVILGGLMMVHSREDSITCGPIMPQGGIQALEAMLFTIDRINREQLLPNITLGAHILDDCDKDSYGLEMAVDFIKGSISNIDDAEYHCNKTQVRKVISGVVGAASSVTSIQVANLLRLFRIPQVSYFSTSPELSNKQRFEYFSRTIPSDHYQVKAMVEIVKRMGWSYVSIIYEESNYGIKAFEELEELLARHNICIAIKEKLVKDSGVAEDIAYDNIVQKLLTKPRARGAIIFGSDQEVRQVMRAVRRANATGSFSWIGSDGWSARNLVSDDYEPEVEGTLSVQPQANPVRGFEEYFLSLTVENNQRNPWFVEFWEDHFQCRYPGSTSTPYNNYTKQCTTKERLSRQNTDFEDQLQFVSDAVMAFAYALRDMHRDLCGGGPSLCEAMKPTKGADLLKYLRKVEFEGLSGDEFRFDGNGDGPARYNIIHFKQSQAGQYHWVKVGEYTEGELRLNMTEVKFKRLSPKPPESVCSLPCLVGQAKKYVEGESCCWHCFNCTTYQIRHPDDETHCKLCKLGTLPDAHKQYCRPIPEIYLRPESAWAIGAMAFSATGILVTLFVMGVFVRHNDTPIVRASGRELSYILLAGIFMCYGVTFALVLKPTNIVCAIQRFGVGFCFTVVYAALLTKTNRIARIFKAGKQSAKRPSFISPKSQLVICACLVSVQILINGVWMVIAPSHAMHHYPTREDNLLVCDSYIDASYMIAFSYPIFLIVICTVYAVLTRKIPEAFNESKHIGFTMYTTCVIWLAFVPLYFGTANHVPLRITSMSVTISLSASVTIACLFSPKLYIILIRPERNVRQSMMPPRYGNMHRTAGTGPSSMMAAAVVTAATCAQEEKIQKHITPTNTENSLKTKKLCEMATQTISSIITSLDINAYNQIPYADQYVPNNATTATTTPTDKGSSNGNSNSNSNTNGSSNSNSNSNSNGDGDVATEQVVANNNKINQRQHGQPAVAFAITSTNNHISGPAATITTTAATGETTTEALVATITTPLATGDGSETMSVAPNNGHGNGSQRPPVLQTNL

N=C(N)NOCC[C@H](N)C(=O)O [L-canavanine, L-2-amino-4-(guanidinooxy)butyric acid]
effect on sugary solution in behavioral test (drosophilas; 40 mM, 5 mM sucrose): very highly repellent | concentration at which a plateau of repellent effect is reached (drosophilas; additional experiments): around 30 mM | repulsion in DmX receptor function loss mutants (drosophilas; mutant drosophilas m1 and m2 (DmXR-)): no longer have any repulsion | repellent effect in chemosensory behavioral test (drosophilas; wild-type drosophila, sugary solution (5 mM sucrose)): highly repellent | in vitro activation of the DmX receptor (DmX receptor (DmXR)): activated
